Like-named read-outs stand apart in the source and are kept apart here.
Columns and labels:
[1] = target: E. coli MetAP (Escherichia coli, UniProt P0AE18); assay: MetAP inhibitory activity, Met-Gly-Met-Met substrate, HPLC detection of Gly-Met-Met; type: biochemical; settings: for inhibition at 25 µM: read-out: E. Coli % inhibition; for E. Coli % inhibition: single concentration: inhibitor 25 µM, enzyme 50 nM, 20 minutes substrate incubation at 37 °C
Method: (§1) The below protocol describes the measurement of the inhibitory activity of the compounds of the present invention by using E. coli MetAP, hsMetAP-I, and hsMetAP-II.
(§2) Inhibition activity of compounds was studied using the tetrapeptide substrate Met-Gly-Met-Met (Bachem) followed by HPLC analysis of the product Gly-Met-Met. The assay was performed in 96 well plates (Greiner) at a total reaction volume of 100 µl. […] A positive control with DMSO solution instead of inhibitor at the corresponding concentration was prepared. Then the substrate Met-Gly-Met-Met was added to a final concentration of 400 µM. After an incubation period of 15 minutes (HsMetAP-I), 20 minutes (EcMetAP) or 60 minutes (HsMetAP-II) at 37 °C, the enzyme reaction was stopped by adding 10 µl 4 % trifluoroacetic acid. The plate was centrifuged at 1000 x g for 10 minutes.
(§3) Detection of the product Gly-Met-Met was performed by HPLC (Jasco), and typically using the following, or equivalent conditions: C18 column (Dr. Maisch, ReproSil-Pur® 120 ODS-3, 3 µm, 50 x 2 mm). 80 µl of sample were applied on the column and eluted with mobile phase A (water and 0.1 % trifluoroacetic acid, filtered, degassed) and B (acetonitrile and 0.1 % trifluoroacetic acid, degassed) over 8 minutes.
(§4) Percentage inhibition was calculated as the relation of Gly-Met-Met amount resulting in inhibited and uninhibited enzyme reaction (positive control). […] The values were determined in relation to positive controls with equal DMSO contents. The inhibition values for the varying concentrations of inhibitor were then fitted to a logarithmic dose-response curve and the IC50 values were calculated from the equation thus obtained.

[2] = target: hsMetAP-I (Homo sapiens, UniProt P53582); assay: as above; type: biochemical, hs; settings: single concentration: inhibitor 25 µM, enzyme 50 nM, 15 minutes substrate incubation at 37 °C
Method: as §1, §2, §3, §4

[3] = target: hsMetAP-II (Homo sapiens, UniProt P50579); assay: as above; type: biochemical, hs
Chain of hsMetAP-II (P50579 whole entry): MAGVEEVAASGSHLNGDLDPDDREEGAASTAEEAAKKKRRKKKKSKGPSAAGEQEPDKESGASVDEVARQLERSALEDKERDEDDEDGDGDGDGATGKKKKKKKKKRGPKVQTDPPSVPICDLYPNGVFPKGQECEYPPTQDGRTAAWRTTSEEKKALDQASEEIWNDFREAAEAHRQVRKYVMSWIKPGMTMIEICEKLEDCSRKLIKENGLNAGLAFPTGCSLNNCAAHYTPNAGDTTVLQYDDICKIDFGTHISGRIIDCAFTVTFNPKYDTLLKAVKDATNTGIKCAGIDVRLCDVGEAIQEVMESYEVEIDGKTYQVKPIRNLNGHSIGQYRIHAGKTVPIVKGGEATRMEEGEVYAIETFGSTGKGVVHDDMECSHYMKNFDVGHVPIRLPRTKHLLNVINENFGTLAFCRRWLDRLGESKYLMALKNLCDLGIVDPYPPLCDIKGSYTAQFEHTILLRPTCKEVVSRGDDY
Method: as §1
Inhibition activity of compounds was studied using the tetrapeptide substrate Met-Gly-Met-Met (Bachem) followed by HPLC analysis of the product Gly-Met-Met. The assay was performed in 96 well plates (Greiner) at a total reaction volume of 100 µl. […] Then the substrate Met-Gly-Met-Met was added to a final concentration of 400 µM. After an incubation period of 15 minutes (HsMetAP-I), 20 minutes (EcMetAP) or 60 minutes (HsMetAP-II) at 37 °C, the enzyme reaction was stopped by adding 10 µl 4 % trifluoroacetic acid. The plate was centrifuged at 1000 x g for 10 minutes.
as §3, §4

[4] = test system: human umbilical vein endothelial cells (HUVEC); assay: HUVEC growth arrest, crystal violet staining; type: cell-based
Excerpt: For the measurement of the HUVEC growth arrest (Example 19) and the used materials and equipment were:
• Cells: Primary human umbilical vein cells (HUVEC) were obtained from GIBCO (Cat. C-015-5C). • Cell culture medium: Medium 200 supplemented with LSGS (Gibco, Cat. M-200-500). • Trypsin/EDTA (Gibco, Cat R-001-100) • Trypsin Neutralizer solution (Gibco, Cat R-002-100). • Crystal violet (Merck / Cat. no. 1408) • Ethanol (Riedel-de-Haen / Cat. no. 32205) • Acetic acid (Riedel-de-Haen / Cat. no. 33209) • Culture flasks: Coming, 430168 • 96 well plates: Greiner, 655 101
• Microtiter pipettes: •Brand Transferpette-8, • Gilson Pipetman 20 and 200 Laminar air flow cabinet: Gelman, Celaire • ELISA reader: Thermo, Multiskan Ascent • Microscope: Leitz Diavert • Balance: Sartorius RC 210 D • CO2 incubator: Heraeus CO2-Auto-Zero • Centrifuge: Heraeus Biofuge primo • Cell counter: Assistent, Neubauer hematocytometer
Crystal violet solution: • Crystal violet (Merck) was dissolved in ethanol (PA quality, Roth) to a concentration of 10 %. The solution was diluted with ddH2O 1:20.
Test compounds: • Compounds of the present invention were dissolved at a concentration of 10 mM in DMSO (Roth, Cat. 47201). Stock solutions of test compounds were diluted 1:10 not earlier than 1 hour before the assay was made.
• 1. HUVEC cells were seeded in 96-well plates ([…]). • 2. 6 hours later test compounds were added in triplicates Concentrations of test compound: 0, 1.6, 3.2, 6.3, 12.5, 25, 50, 100 µM. Fresh medium and test compounds were added every 48 hr. • 3. One 96 well plate (t=0) with untreated cells was fixed at the same time point as treatment of cells with test compounds was initiated. • 4. Test plates were incubated for 10 days in a CO2 incubator. • 5. Fixation of cells: Wells were washed with 100 µL/well PBS. PBS was decanted and 100 µL of 3 % formaldehyde/well was added. After 5 min, formaldehyde was decanted and plates were dried upside down on blotting paper overnight at room temperature. • 6. Staining: 0.1 mL of crystal violet solution was added to each well with a 12-channel pipette. After incubation for 5 min at room temperature, the crystal violet solution was decanted and plates were washed 5 x by submersion in 3 L fresh water. • 7. After drying (plates were dried on blotting paper upside down overnight) 0.1 mL of ethanol/acetic acid (99:1) was added to each well and the optical density at 595 nm was determined in an ELISA reader.
The evaluation of the growth inhibitory activity was carried out as follows: • Definitions: Growth: Mean OD at t=10 d - mean OD at t=0. • Evaluation: Dose response curves were established by plotting growth against concentration of compounds using Microsoft Excel.

[5] = background, Phase II clinical compound; cited from earlier work
[6] = read-out: hsMetAP-II % inhibition, single concentration: inhibitor 25 µM, enzyme 50 nM, 60 minutes substrate incubation at 37 °C
[7] = Homo sapiens, HUVEC, 240 h, growth over 10 days, 0-100 µM, OD at 595 nm, read-out: HUVEC IC50
[8] = enzyme 50 nM, 400 µM Met-Gly-Met-Met, 60 minutes at 37 °C, read-out: hsMetAP-II IC50
[9] = single concentration: inhibitor 25 µM, enzyme 50 nM, 60 minutes substrate incubation at 37 °C, read-out: hsMetAP-II % inhibition
[10] = hsMetAP-II IC50, enzyme 50 nM, 400 µM Met-Gly-Met-Met, 60 minutes at 37 °C
[11] = single concentration: inhibitor 25 µM, enzyme 50 nM, 60 minutes substrate incubation at 37 °C
[12] = growth over 10 days, 0-100 µM, OD at 595 nm, read-out: HUVEC IC50

Chain of E. coli MetAP (P0AE18 whole entry): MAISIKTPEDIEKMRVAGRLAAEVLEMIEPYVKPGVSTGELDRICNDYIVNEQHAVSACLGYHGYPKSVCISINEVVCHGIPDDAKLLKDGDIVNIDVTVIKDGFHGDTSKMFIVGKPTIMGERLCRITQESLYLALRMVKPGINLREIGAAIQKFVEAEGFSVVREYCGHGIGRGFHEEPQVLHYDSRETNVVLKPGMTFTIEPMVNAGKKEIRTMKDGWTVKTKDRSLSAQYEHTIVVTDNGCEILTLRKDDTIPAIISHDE

| SMILES | inhibition at 25 µM [1] [%] | hsMetAP-I % inhibition [2] | IC50 [3] [nM] | inhibition at 25 µM [3, 6] [%] | IC50 [4, 7] [nM] | IC50 [3, 8] [nM] | inhibition at 25 µM [3, 9] [%] | E. Coli % inhibition [1] | inhibitory effect on MetAP-II (in words) [3] | IC50 [3, 10] [nM] | IC50 ([4]; Homo sapiens, HUVEC, 240 h, read-out: HUVEC IC50, growth over 10 days, 0-100 µM, OD at 595 nm) [nM] | plasma half-life [5] | hsMetAP-II % inhibition [3, 11] [%] | IC50 [4, 12] [nM] |
| --- | --- | --- | --- | --- | --- | --- | --- | --- | --- | --- | --- | --- | --- | --- |
| COc1ccc(Cn2nnc3c2C2(CCC3OC(=O)NCC(C)C)CO2)cc1 (racemic) [UWU-XII-142-A] | 18.7 ± 0.8 | Inactive | 150 ± 30 | 100 | 2400 | – | – | – | – | – | – | – | – | – |
| O=C1CCC2(CO2)c2c1nnn2CC1CCCCC1 (stereo not drawn) [BK-I-177-A] | 19 ± 5 | Inactive | – | – | 9700 | 17000 ± 6000 | 40 ± 3 | – | – | – | – | – | – | – |
| COc1ccc(Cn2nnc3c2[C@]2(CC[C@H]3OC(=O)c3ccccc3)CO2)cc1 (racemic) [UWU-II-023-A] | – | Inactive | – | 98.6 ± 0.4 | – | – | – | Inactive | good inhibitory effect | 600 ± 10 | 2400 | – | – | – |
| O=C1CCC2(CO2)c2c1nnn2Cc1ccc(F)cc1 (stereo not drawn) [BK-I-178-A] | 13 ± 5 | Inactive | – | – | 3200 | 870 ± 90 | 100 | – | – | – | – | – | – | – |
| CO[C@@H]1[C@H](OC(=O)NC(=O)CCl)CC[C@]2(CO2)[C@H]1[C@@]1(C)O[C@@H]1CC=C(C)C [TNP-470] | – | – | – | – | – | – | – | – | – | – | – | ~ 2 min | – | – |
| COc1ccc(Cn2nnc3c2C2(CCC3=O)CO2)cc1 (stereo not drawn) [HHS-I-028-B] | – | Inactive | – | – | 8800 | 980 ± 30 | 97 ± 0.3 | Inactive | good inhibitory effect | – | – | – | – | – |
| COc1ccc(Cn2nnc3c2[C@@]2(CC[C@H]3OC(=O)c3ccccc3)CO2)cc1 (racemic) [UWU-XII-023-D] | – | Inactive | – | 45 ± 4 | 2100 | – | – | Inactive | – | 17000 ± 12000 | – | – | – | – |
| COc1ccc(Cn2nnc3c2C2(CCC3OC(=O)Nc3ccccc3)CO2)cc1 (racemic) [UWU-XIII-005-A] | – | Inactive | – | – | – | – | – | Inactive | – | 18000 ± 5000 | – | – | 44 ± 6 | 14900 |
| CC(C)NC(=O)O[C@@H]1CC[C@]2(CO2)c2c1nnn2Cc1ccccc1 (racemic) [UWU-XII-128-A] | 24 ± 2 | Inactive | – | 100 | 1200 | – | – | – | good inhibitory effect | 420 ± 70 | – | – | – | – |
| COc1ccc(Cn2nnc3c2C2(CCC3OC(=O)Nc3ccccc3)CO2)cc1 (racemic) [UWU-XII-149-A] | – | Inactive | – | – | – | – | – | Inactive | – | 990 ± 50 | – | – | 100 | 3200 |
| O=C1CCC2(CO2)c2c1nnn2Cc1ccc(Cl)cc1 (stereo not drawn) [BK-I-184-A] | 14 ± 5 | Inactive | – | – | 7400 | 740 ± 30 | 100 | – | – | – | – | – | – | – |
